The text below walks through data of ChEMBL document CHEMBL1157873, “Synthesis and biological activity of Delta-5,6-norcantharimides: importance of the 5,6-bridge” (Eur J Med Chem, 2010).

The structures appear in SMILES notation.

What all share (type): functional
The test system of one test is A-431. Kind of test: Cytotoxicity against human A431 cells at 100 uM after 72 hrs by MTT assay. Conditions: A-431, 72 h.
In a further test the test system is NCI-H460. Kind of test: Cytotoxicity against human H460 cells at 100 uM after 72 hrs by MTT assay. Conditions: NCI-H460, 72 h. In general terms: Tetrazolium dyes change colour on reduction, which living cells bring about.
The subject of another test is SW480. Kind of test: Cytotoxicity against human SW480 cells at 100 uM after 72 hrs by MTT assay. Conditions: SW480, 72 h.
The subject of the next test is MCF7. Kind of test: Cytotoxicity against human MCF7 cells at 100 uM after 72 hrs by MTT assay. Conditions: MCF7, 72 h.
For the next test, the system named is DU-145. Kind of test: Cytotoxicity against human DU145 cells at 100 uM after 72 hrs by MTT assay. Conditions: DU-145, 72 h.
The nature of test [1]: Cytotoxicity against human SJ-G2 cells at 100 uM after 72 hrs by MTT assay. Conditions: SJ-G2, 72 h.
Test [2] in a line: Cytotoxicity against human BE(2)-C cells at 100 uM after 72 hrs by MTT assay.
A further test has as its system HT-29. Kind of test: Cytotoxicity against human HT-29 cells at 100 uM after 72 hrs by MTT assay. Conditions: HT-29, 72 h.
In another test the test system is A2780. Kind of test: Cytotoxicity against human A2780 cells at 100 uM after 72 hrs by MTT assay. Conditions: A2780, 72 h.

For the compound `O=C1[C@H]2CNC[C@H]2C(=O)N1CCN1CCOCC1`, the inhibition at 100 µM with A-431 is 10%; in the test with NCI-H460, less than 10%; in the test on SW480, less than 10%; in the test on MCF7, 11%; in the test with DU-145, less than 10%; in test [1], less than 10%. For the same compound, the inhibition at 100 µM (in [2]; in the test with HT-29; with A2780) was less than 10% each time.
For `CCC(CO)N1C(=O)[C@H]2CNC[C@H]2C1=O` (stereo not given in full), the inhibition at 100 µM (in the test with A-431; in the test on NCI-H460; with SW480; in the test with MCF7; with DU-145; in test [1]) was less than 10% in each case. The inhibition at 100 µM (in test [2]; with HT-29; in the test on A2780) was less than 10% each time.
`CCC(CO)N1C(=O)[C@H]2CN(Cc3ccccc3)C[C@H]2C1=O` (stereo not given in full): the inhibition at 100 µM was less than 10% in the test with A-431; less than 10% with NCI-H460; 15% in the test with SW480; less than 10% with MCF7; less than 10% with DU-145; less than 10% in test [1]. Moreover, the results for the inhibition at 100 µM (in [2]; with HT-29; with A2780) were less than 10%, 14% and 15%, respectively.
As to `CCOC(=O)CC[C@@H](C(=O)OCC)N1C(=O)[C@H]2COC[C@H]2C1=O`, the inhibition at 100 µM in the test on A-431 is 13%; in the test on NCI-H460, 13%; with SW480 it was 34%; in the test with MCF7, 28%; in the test on DU-145 it was 20%; in test [1], less than 10%. The inhibition at 100 µM was less than 10% in test [2], 30% in the test with HT-29 and 29% with A2780.
`CC(CO)N1C(=O)[C@H]2CN(Cc3ccccc3)C[C@H]2C1=O` (stereo not given in full): the inhibition at 100 µM with A-431 was less than 10%; with NCI-H460, 14%; in the test on SW480, 12%; in the test with MCF7, 22%; in the test with DU-145 it was 10%; in test [1], 18%. Further, the figures for the inhibition at 100 µM (in test [2]; in the test on HT-29; in the test on A2780) were 10%, 15% and 21%, respectively.
For the compound `O=C(O)[C@H](Cc1c[nH]cn1)N1C(=O)[C@H]2COC[C@H]2C1=O`, the inhibition at 100 µM with A-431 was determined as 26%; in the test on NCI-H460, 21%; in the test on SW480, 18%; in the test on MCF7, 20%; in the test on DU-145 it was 11%; in test [1], 15%. For the same compound, the inhibition at 100 µM in test [2] is 22%; with HT-29, 26%; in the test with A2780, 23%.
Regarding `NCCCC[C@@H](C(=O)O)N1C(=O)[C@H]2COC[C@H]2C1=O`, the inhibition at 100 µM came to 35% with A-431; 27% with NCI-H460; 30% with SW480; 37% with MCF7; 17% in the test with DU-145; 23% in [1]. Besides, the inhibition at 100 µM was 32% in test [2], 30% in the test with HT-29 and 31% in the test on A2780.
As to `O=C1[C@H]2CN(Cc3ccccc3)C[C@H]2C(=O)N1CCN1CCOCC1`, the inhibition at 100 µM in the test with A-431 is 11%; with NCI-H460, less than 10%; with SW480 it was 49%; with MCF7, 51%; with DU-145, 25%; in test [1], 25%. Besides, the inhibition at 100 µM in [2] amounted to 12%; with HT-29, 45%; in the test on A2780, 33%.
Consider `NCCC[C@@H](C(=O)O)N1C(=O)[C@H]2CNC[C@H]2C1=O`, for which the inhibition at 100 µM in the test on A-431 was 16%; in the test on NCI-H460, 16%; with SW480, 11%; in the test on MCF7 it was 22%; in the test with DU-145, less than 10%; in test [1], less than 10%. Moreover, the inhibition at 100 µM in [2] was 23%; in the test on HT-29 it was 12%; with A2780, 11%.
As to `O=C(O)[C@H](Cc1c[nH]cn1)N1C(=O)[C@H]2CNC[C@H]2C1=O`, the inhibition at 100 µM (with A-431; in the test on NCI-H460; in the test with SW480; in the test with MCF7; in the test with DU-145; in [1]) was less than 10% each time. Also, the inhibition at 100 µM in test [2] is less than 10%; in the test on HT-29, 10%; in the test on A2780 it was less than 10%.
Turning to `O=C(O)[C@H](Cc1c[nH]cn1)N1C(=O)[C@H]2CSC[C@H]2C1=O`, the inhibition at 100 µM in the test with A-431 was less than 10%; in the test on NCI-H460, 10%; in the test on SW480, less than 10%; in the test with MCF7 it was 15%; in the test on DU-145, less than 10%; in test [1], less than 10%. In addition, the figures for the inhibition at 100 µM (in [2]; in the test with HT-29; with A2780) were 14%, 10% and less than 10%, respectively.
For the compound `NCC[C@@H](C(=O)O)N1C(=O)[C@H]2CNC[C@H]2C1=O`, the inhibition at 100 µM (in the test on A-431; in the test with NCI-H460; with SW480; in the test on MCF7; in the test on DU-145; in [1]) was less than 10% throughout. Further, the inhibition at 100 µM (in [2]; with HT-29; in the test with A2780) was less than 10% in each case.
For the compound `NCCCC[C@@H](C(=O)O)N1C(=O)[C@H]2CSC[C@H]2C1=O`, the inhibition at 100 µM is 19% with A-431; 19% in the test on NCI-H460; less than 10% in the test with SW480; 30% in the test with MCF7; less than 10% with DU-145; 10% in [1]. For the same compound, the inhibition at 100 µM in [2] worked out at 22%; in the test with HT-29 it was 22%; in the test with A2780, 16%.
As to `CCC(CO)N1C(=O)[C@H]2COC[C@H]2C1=O` (stereo not given in full), the inhibition at 100 µM (in the test on A-431; in the test with NCI-H460; in the test with SW480; in the test on MCF7; in the test on DU-145; in test [1]) was less than 10% throughout. The inhibition at 100 µM is less than 10% in test [2], less than 10% in the test on HT-29 and 13% with A2780.
Turning to `O=C1[C@H]2COC[C@H]2C(=O)N1CCN1CCOCC1`, the inhibition at 100 µM (with A-431; with NCI-H460; with SW480; in the test on MCF7; in the test with DU-145; in test [1]) was less than 10% each time. Moreover, the inhibition at 100 µM in test [2] is less than 10%; in the test on HT-29, less than 10%; in the test with A2780, 13%.

In general, inhibition refers to the percentage by which the read-out fell short of the control.
